Experimental data from ChEMBL document CHEMBL1128680, “6-substituted 2,4-diamino-5-methylpyrido[2,3-d]pyrimidines as inhibitors of dihydrofolate reductases from Pneumocystis carinii and Toxoplasma gondii and as antitumor agents” (J Med Chem, 1995).

What was measured:
[1] = target: T1, Dihydrofolate reductase (Pneumocystis carinii, UniProt P16184)
T1 sequence (P16184 whole entry): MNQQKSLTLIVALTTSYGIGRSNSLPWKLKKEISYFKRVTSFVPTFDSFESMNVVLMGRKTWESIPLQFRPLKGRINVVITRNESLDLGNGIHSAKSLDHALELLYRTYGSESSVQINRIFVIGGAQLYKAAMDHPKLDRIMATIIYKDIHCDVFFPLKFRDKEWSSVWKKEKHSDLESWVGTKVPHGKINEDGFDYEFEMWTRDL
Description: Inhibitory activity against Dihydrofolate reductase from Pneumocystis carinii

[2] = target: T2, Bifunctional dihydrofolate reductase-thymidylate synthase (Toxoplasma gondii, UniProt Q07422)
T2 sequence (Q07422 whole entry): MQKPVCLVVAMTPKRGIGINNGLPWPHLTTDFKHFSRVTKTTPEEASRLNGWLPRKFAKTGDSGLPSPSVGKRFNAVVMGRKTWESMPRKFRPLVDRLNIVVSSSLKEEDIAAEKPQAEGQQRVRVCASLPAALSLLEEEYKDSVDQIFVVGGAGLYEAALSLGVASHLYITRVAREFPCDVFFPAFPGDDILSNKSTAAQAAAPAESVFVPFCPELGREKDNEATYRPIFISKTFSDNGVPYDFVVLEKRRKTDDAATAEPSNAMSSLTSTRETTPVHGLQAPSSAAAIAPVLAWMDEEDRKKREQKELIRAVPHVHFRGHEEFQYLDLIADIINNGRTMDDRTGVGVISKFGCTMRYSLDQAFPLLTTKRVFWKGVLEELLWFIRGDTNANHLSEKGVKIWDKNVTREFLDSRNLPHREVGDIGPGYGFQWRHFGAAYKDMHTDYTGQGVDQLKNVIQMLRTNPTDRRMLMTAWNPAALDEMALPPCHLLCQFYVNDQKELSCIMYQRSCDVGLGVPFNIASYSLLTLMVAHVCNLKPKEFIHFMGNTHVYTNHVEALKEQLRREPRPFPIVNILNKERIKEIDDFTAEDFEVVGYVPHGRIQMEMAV
Description: Inhibitory activity against Dihydrofolate reductase from Toxoplasma gondii

[3] = target: Dihydrofolate reductase (Lactobacillus casei, UniProt P00381)
Description: Inhibitory activity against Dihydrofolate reductase from Lactobacillus casei

[4] = target: T3, Dihydrofolate reductase (Rattus norvegicus, UniProt Q920D2)
T3 sequence (Q920D2 whole entry): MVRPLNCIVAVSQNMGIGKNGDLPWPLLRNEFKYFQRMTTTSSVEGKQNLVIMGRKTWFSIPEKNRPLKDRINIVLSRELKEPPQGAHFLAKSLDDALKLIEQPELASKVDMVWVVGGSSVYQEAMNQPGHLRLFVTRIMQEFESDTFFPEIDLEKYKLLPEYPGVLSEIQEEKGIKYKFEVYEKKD
Description: Inhibitory activity against Dihydrofolate reductase from rat liver

[5] = system: Toxoplasma gondii; assay: Inhibitory activity against cultured Toxoplasma gondii; assay type: functional, organism-based
[6] = Ratio of the inhibitory concentrations against Toxoplasma gondii […] and Toxoplasma gondii DHFR.

Dihydrofolate reductase (Lactobacillus casei, UniProt P00381), sequence (P00381 whole entry): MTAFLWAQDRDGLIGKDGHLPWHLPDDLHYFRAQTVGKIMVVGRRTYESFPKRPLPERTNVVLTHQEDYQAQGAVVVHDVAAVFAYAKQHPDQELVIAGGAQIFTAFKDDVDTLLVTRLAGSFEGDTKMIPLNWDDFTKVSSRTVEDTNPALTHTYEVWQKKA

| Structure (SMILES) | IC50 [1] [nM] | IC50 [2] [nM] | IC50 [3] [nM] | IC50 [4] [nM] | IC50 [5] [nM] | Ratio [6] |
| --- | --- | --- | --- | --- | --- | --- |
| COc1cc(N(Cc2cnc3nc(N)nc(N)c3c2C)C(C)C)cc(OC)c1OC | 13.4 | 6.7 | 210 | 17.5 |  |  |
| COc1ccc(NCc2cnc3nc(N)nc(N)c3c2C)cc1OC | 44 | 8.8 | 83 | 7.6 |  |  |
| C#CCN(Cc1cnc2nc(N)nc(N)c2c1C)c1cc(OC)c(OC)c(OC)c1 | 53.5 | 7.7 |  | 11.8 |  |  |
| COc1cc(NCc2ccc3nc(N)nc(N)c3c2C)cc(OC)c1OC [TRIMETREXATE] |  |  | 27 |  |  |  |
| COc1ccc(OC)c(NCc2cnc3nc(N)nc(N)c3c2C)c1 | 46 | 16 | 39 | 128 | 1500 | 94 |
| CCN(Cc1cnc2nc(N)nc(N)c2c1C)c1cc(OC)c(OC)c(OC)c1 | 49.7 | 7.7 |  | 10.5 |  |  |
| CCOc1ccc(OCC)c(NCc2cnc3nc(N)nc(N)c3c2C)c1 | 76.7 | 17 |  | 17.4 | 320 | 19 |
| Cc1c(CNc2cccc3ccccc23)cnc2nc(N)nc(N)c12 | 573 | 14.5 |  | 29.6 | 100 | 7 |
